# Reference: US20120302577A1 (AB SCIENCE, priority 2010, published 2012)
# Counter-ions that a name gives are not always drawn.
# Columns and labels:
# patients with GIST = settings: initial dose 400 mg/day, 345 patients; cited from earlier work
# [1] = tested on: patients with advanced GIST; settings: cited from earlier work
# [2] = tested on: patients with advanced GIST; test: Phase 2 clinical trial, safety assessment (adverse events, NCI CTCAE v3.0); type: in vivo, human; settings: for Abdominal Pain / Abdominal Pain Upper / Anaemia / Asthenia / Diarrhoea / Dry Skin / Erythema / Eye Oedema / Eyelid Oedema / Lacrimation Increased / Mucosal Inflammation / Muscle Spasms / Myalgia / Nausea / Neutropenia / Oedema Peripheral / Pruritus / Rash / Vomiting: N = 30
# From the text: Methods; Patients: Patients enrolled in this study were aged over 18 years with inoperable, non-pretreated, histologically proven locally advanced or metastatic, c-Kit positive GIST. […] Exclusion criteria included: inadequate organ function defined via blood tests, severe liver or cardiac failure, and severe neurological or psychiatric disorders. Patients receiving a concomitant treatment within 4 weeks before inclusion, and pregnant or lactating women were also excluded. […] All adverse events (AEs), including abnormal serology or haematology, were recorded regardless of causality.
# [3] = tested on: imatinib-resistant HMC-1α155 cells; test: Apoptosis assay by Propidium Iodide staining on imatinib-resistant cells; type: cell-based, human; settings: imatinib-resistant HMC-1α155 cells exposed to 1 μM
# Protocol: HMC-1 is a human mast cell line derived from a patient with mast cell leukaemia. The cell line used in this study, HMC-1α155, is a clone derived from the original population expressing endogenous Kit bearing the mutation Val 560 to Gly. […] The medium used in this case was a RPMI medium containing L-glutamine (Cambrex cat#12-702F) supplemented with 100 U/mL penicillin and 100 μg/mL streptomycin (Cambrex 100× penicilline/streptomycine mixture cat #17-602E), and with 10% v/v foetal calf serum (AbCys Lot S02823S1800) which has been previously heat-inactivated 30 minutes at 56° C. (RPMI 10). The medium containing the drugs was replaced with fresh one every 3-4 days. […] The principle behind the method for apoptosis assay by Propidium Iodide Staining (PI staining) is as follows: during apoptosis, DNA breakup causes small fragments of DNA to be free in the nucleus. Following appropriate elution with citrate buffer, these fragments are lost from the nucleus. As these cells now have a lower DNA content, subsequent staining with a DNA binding dye will reveal these cells in the sub-G1 region.
# [4] = tested on: patients with advanced GIST; test: Phase 2 clinical trial, metabolic response (FDG-PET); type: in vivo, human; settings: At 1 month (N = 13)
# From the text: Methods; Patients: Patients enrolled in this study were aged over 18 years with inoperable, non-pretreated, histologically proven locally advanced or metastatic, c-Kit positive GIST. […] Exclusion criteria included: inadequate organ function defined via blood tests, severe liver or cardiac failure, and severe neurological or psychiatric disorders. Patients receiving a concomitant treatment within 4 weeks before inclusion, and pregnant or lactating women were also excluded.
# [5] = tested on: patients with advanced GIST; settings: after 2 months of masitinib; cited from earlier work
# [6] = tested on: patients with advanced GIST; test: Phase 2 clinical trial, response rate according to RECIST (CT); type: in vivo, human; settings: 2 months (N = 30)
# From the text: Methods; Patients: Patients enrolled in this study were aged over 18 years with inoperable, non-pretreated, histologically proven locally advanced or metastatic, c-Kit positive GIST. […] Exclusion criteria included: inadequate organ function defined via blood tests, severe liver or cardiac failure, and severe neurological or psychiatric disorders. Patients receiving a concomitant treatment within 4 weeks before inclusion, and pregnant or lactating women were also excluded. […] Methods; Statistical analyses: Simon […] two-stage design was used for this prospective, multicenter, single-group, phase II trial. Fourteen patients were initially enrolled, with recruitment of an additional ten patients being dependent on the occurrence of at least one objective RECIST response. This population was further extended to a total of 30 patients to ensure a sufficient evaluable population for all end-points; the type I(α) error was 5% (two-sided) for all analyses. Quantitative variables were described by the number of filled and missing data, mean, standard deviation, median, minimum and maximum. Qualitative variables were described by the number of missing data and, for each modality, frequency and percentage (referring to filled data). Time-to-event data were described using Kaplan-Meier (KM) estimates. The median was provided with its 95% confidence interval (95% CI). […]
# [7] = tested on: patients with advanced GIST; test: Phase 2 clinical trial, time-to-event analysis (PFS, OS); type: in vivo, human
# From the text: Methods; Patients: Patients enrolled in this study were aged over 18 years with inoperable, non-pretreated, histologically proven locally advanced or metastatic, c-Kit positive GIST. […] Exclusion criteria included: inadequate organ function defined via blood tests, severe liver or cardiac failure, and severe neurological or psychiatric disorders. Patients receiving a concomitant treatment within 4 weeks before inclusion, and pregnant or lactating women were also excluded. […] Time-to-event analyses were calculated from the date of first masitinib intake to the date of event (documented progression or death). Patients who had not progressed at the date of last tumor assessment were censored at that date for PFS. Patients alive at the time of the analysis were censored at the date of last contact for OS. Methods; Statistical analyses: Simon […] two-stage design was used for this prospective, multicenter, single-group, phase II trial. Fourteen patients were initially enrolled, with recruitment of an additional ten patients being dependent on the occurrence of at least one objective RECIST response. This population was further extended to a total of 30 patients to ensure a sufficient evaluable population for all end-points; the type I(α) error was 5% (two-sided) for all analyses. Quantitative variables were described by the number of filled and missing data, mean, standard deviation, median, minimum and maximum. Qualitative variables were described by the number of missing data and, for each modality, frequency and percentage (referring to filled data). Time-to-event data were described using Kaplan-Meier (KM) estimates. The median was provided with its 95% confidence interval (95% CI). PFS rates were given every 6 months with KM estimates. All data analyses and reporting procedures used SAS v9.1 in a Windows XP operating system environment.
smiles,measurement,setting,value
Cc1ccc(NC(=O)c2ccc(CN3CCN(C)CC3)cc2)cc1Nc1nccc(-c2cccnc2)n1 [imatinib],2-year PFS rate,patients with GIST,46%
same,2-year survival,patients with GIST,72%
same,3-year survival,patients with GIST,~61%
same,Median PFS,patients with GIST,18 months
same,Median overall survival (OS),patients with GIST,55 months
same,2-year survival rate of patients with advanced GIST,[1]; after introduction of imatinib (pre-imatinib 25%),about 70%
same,"Patients with early resistance (progression within first 6 months, no response)",[1]; in vivo,10-15%
"Cc1ccc(NC(=O)c2ccc(CN3CCN(C)CC3)cc2)cc1Nc1nc(-c2cccnc2)cs1 [masitinib, 4-(4-methylpiperazin-1-ylmethyl)-N-[4-methyl-3-(4-pyridin-3-ylthiazol-2-ylamino)phenyl]benzamide-mesylate methane sulfonic acid salt]",Abdominal Pain,"[2]; All causalities, All grades",16 (53.3%) Number (%) of patients
same,Abdominal Pain Upper,"[2]; All causalities, All grades",9 (30.0%) Number (%) of patients
same,Anaemia,"[2]; All causalities, All grades",6 (20.0%) Number (%) of patients
same,Asthenia,"[2]; All causalities, All grades",27 (90.0%) Number (%) of patients
same,Diarrhoea,"[2]; All causalities, All grades",18 (60.0%) Number (%) of patients
same,Dry Skin,"[2]; All causalities, All grades",4 (13.3%) Number (%) of patients
same,Erythema,"[2]; All causalities, All grades",6 (20.0%) Number (%) of patients
same,Eye Oedema,"[2]; All causalities, All grades",14 (46.7%) Number (%) of patients
same,Eyelid Oedema,"[2]; All causalities, All grades",7 (23.3%) Number (%) of patients
same,Lacrimation Increased,"[2]; All causalities, All grades",4 (13.3%) Number (%) of patients
same,Mucosal Inflammation,"[2]; All causalities, All grades",5 (16.7%) Number (%) of patients
same,Muscle Spasms,"[2]; All causalities, All grades",12 (40.0%) Number (%) of patients
same,Myalgia,"[2]; All causalities, All grades",4 (13.3%) Number (%) of patients
same,Nausea,"[2]; All causalities, All grades",15 (50.0%) Number (%) of patients
same,Neutropenia,"[2]; All causalities, All grades",5 (16.7%) Number (%) of patients
same,Oedema Peripheral,"[2]; All causalities, All grades",8 (26.7%) Number (%) of patients
same,Pruritus,"[2]; All causalities, All grades",11 (36.7%) Number (%) of patients
same,Rash,"[2]; All causalities, All grades",12 (40.0%) Number (%) of patients
same,Vomiting,"[2]; All causalities, All grades",10 (33.3%) Number (%) of patients
same,Abdominal Pain,"[2]; All causalities, G3 + G4",2 (6.7%) Number (%) of patients
same,Anaemia,"[2]; All causalities, G3 + G4",1 (3.3%) Number (%) of patients
same,Asthenia,"[2]; All causalities, G3 + G4",1 (3.3%) Number (%) of patients
same,Diarrhoea,"[2]; All causalities, G3 + G4",1 (3.3%) Number (%) of patients
same,Eye Oedema,"[2]; All causalities, G3 + G4",1 (3.3%) Number (%) of patients
same,Mucosal Inflammation,"[2]; All causalities, G3 + G4",1 (3.3%) Number (%) of patients
same,Neutropenia,"[2]; All causalities, G3 + G4",2 (6.7%) Number (%) of patients
same,Pruritus,"[2]; All causalities, G3 + G4",1 (3.3%) Number (%) of patients
same,Rash,"[2]; All causalities, G3 + G4",3 (10.0%) Number (%) of patients
same,Patients reporting at least one treatment-related AE,[2]; ITT N = 30,All patients
same,Treatment-related toxicity per patient: abdominal pain,[2]; ITT N = 30,33%
same,Treatment-related toxicity per patient: asthenia,[2]; ITT N = 30,83%
same,Treatment-related toxicity per patient: cutaneous rash,[2]; ITT N = 30,40%
same,Treatment-related toxicity per patient: diarrhoea,[2]; ITT N = 30,57%
same,Treatment-related toxicity per patient: eye oedema,[2]; ITT N = 30,47%
same,Treatment-related toxicity per patient: muscle spasms,[2]; ITT N = 30,40%
same,Treatment-related toxicity per patient: nausea,[2]; ITT N = 30,47%
same,Treatment-related toxicity per patient: peripheral oedema,[2]; ITT N = 30,20%
same,Treatment-related toxicity per patient: pruritus,[2]; ITT N = 30,33%
same,Treatment-related toxicity per patient: upper abdominal pain,[2]; ITT N = 30,23%
same,Treatment-related toxicity per patient: vomiting,[2]; ITT N = 30,23%
same,Abdominal Pain,"[2]; Suspected, All grades",10 (33.3%) Number (%) of patients
same,Abdominal Pain Upper,"[2]; Suspected, All grades",7 (23.3%) Number (%) of patients
same,Anaemia,"[2]; Suspected, All grades",4 (13.3%) Number (%) of patients
same,Asthenia,"[2]; Suspected, All grades",25 (83.3%) Number (%) of patients
same,Diarrhoea,"[2]; Suspected, All grades",17 (56.7%) Number (%) of patients
same,Dry Skin,"[2]; Suspected, All grades",4 (13.3%) Number (%) of patients
same,Erythema,"[2]; Suspected, All grades",5 (16.7%) Number (%) of patients
same,Eye Oedema,"[2]; Suspected, All grades",14 (46.7%) Number (%) of patients
same,Eyelid Oedema,"[2]; Suspected, All grades",7 (23.3%) Number (%) of patients
same,Lacrimation Increased,"[2]; Suspected, All grades",4 (13.3%) Number (%) of patients
same,Mucosal Inflammation,"[2]; Suspected, All grades",5 (16.7%) Number (%) of patients
same,Muscle Spasms,"[2]; Suspected, All grades",12 (40.0%) Number (%) of patients
same,Myalgia,"[2]; Suspected, All grades",4 (13.3%) Number (%) of patients
same,Nausea,"[2]; Suspected, All grades",14 (46.7%) Number (%) of patients
same,Neutropenia,"[2]; Suspected, All grades",5 (16.7%) Number (%) of patients
same,Oedema Peripheral,"[2]; Suspected, All grades",6 (20.0%) Number (%) of patients
same,Pruritus,"[2]; Suspected, All grades",10 (33.3%) Number (%) of patients
same,Rash,"[2]; Suspected, All grades",12 (40.0%) Number (%) of patients
same,Vomiting,"[2]; Suspected, All grades",7 (23.3%) Number (%) of patients
same,Abdominal Pain,"[2]; Suspected, G3 + G4",1 (3.3%) Number (%) of patients
same,Anaemia,"[2]; Suspected, G3 + G4",1 (3.3%) Number (%) of patients
same,Asthenia,"[2]; Suspected, G3 + G4",1 (3.3%) Number (%) of patients
same,Diarrhoea,"[2]; Suspected, G3 + G4",1 (3.3%) Number (%) of patients
same,Eye Oedema,"[2]; Suspected, G3 + G4",1 (3.3%) Number (%) of patients
same,Mucosal Inflammation,"[2]; Suspected, G3 + G4",1 (3.3%) Number (%) of patients
same,Neutropenia,"[2]; Suspected, G3 + G4",2 (6.7%) Number (%) of patients
same,Pruritus,"[2]; Suspected, G3 + G4",1 (3.3%) Number (%) of patients
same,Rash,"[2]; Suspected, G3 + G4",3 (10.0%) Number (%) of patients
same,Cardiac side-effects,[2]; to date,no cardiac side-effects have been observed
same,% apoptosis (cells in apoptosis with respect to overall cells),[3],More than 45%
same,"Metabolic response CMR + PMR (metabolic response rate), %",[4],(69.2%)
same,"Metabolic response CMR, %",[4],(0.0%)
same,Patients with tumour response assessed with DCE-US,[5],75%
same,"Response (RECIST) CR + PR + SD (disease control rate), %",[6],(96.7%) [82.8; 99.9]
same,"Response (RECIST) CR, %",[6]; 7.5 mg/kg/day oral,(0.0%)
same,OS rates (%) [95% CI],[7]; 12 months,96.7%
same,PFS rate (%) [95% CI],[7]; 24 months,60%
same,PFS rate (%) [95% CI],[7]; 36 months,55%
